Series [1] in a line: Liver microsomal stability, mouse. The series is classed as in vitro ADME. The conditions noted are these: liver microsomes, read-out: Liver microsomal stability (% remaining during 30min). As to the method: For PK analysis, 5 mg/kg of JH4 in 10% DMSO, 5% […] solution were intravenously injected and 10 mg/kg of JH4 in 10% NMP and 90% PEG400 solution were orally delivered. At pre-set time-points, blood concentration of JH4 was determined by LC-MS/MS analysis[22],[23]. Other chemicals were also tested using similar protocol. In vitro ADME studies (plasma protein binding, CYP inhibition, microsomal stability, plasma stability, and hERG inhibition) were performed by New Drug Development Center (Daegu, Korea) using standard protocols[24],[25].
On the technique in general: Liver microsomes are a subcellular fraction often used to study metabolism.

Series [2] can be described thus: Maximum tolerated dose study in Beagle dogs, escalated-dose oral administration. Type of series: in vivo. The following applies: both sexes, beagle, dog, in vivo; oral gavage, dose escalation. An excerpt:
The protocol and procedures involving the care and use of animals in this study was reviewed and approved by IACUC of QuBEST BIO prior to conduct (Approval no.: QBSIACUC-A18142). During the study, the care and use of animals will be conducted in accordance with all applicable guidelines of Animal Welfare Act. Non-naive one male and one female Beagle dogs (~16–24 months old, original supplier: ORIENTBIO Co., Ltd, Korea) were selected from the stock colony and assigned for the study. The route of administration was the oral (by gavage) route, which is the anticipated clinical route of exposure. Test article formulations were administered once via oral gavage. The day of 1st dosing was designated as Day 1. Each dose was administered via a syringe attached with 12-french feeding tube. A dose volume of 5 ml/kg was used and individual dose volumes were based on the most recent body weight. Each dose was followed by a distilled water of 5 ml. Each animal was observed twice daily (a.m. and p.m.) for mortality and moribundity; findings were recorded as they were observed. Cage side observations were made for each animal once daily; abnormal findings were recorded. […] Body weights were measured prior to each dosing. […] Prior to dosing and ~24 h post each dose, blood was collected as the same method and frequency with hematology analysis using no anticoagulant and then serum was separated by centrifugation and stored at freezer until analyze (AU 400, Olympus, Japan; […] 744 Na^+/K^+/[…] Analyzer, SIEMENS, Germany). In terminal procedures, all surviving animals were returned to the stock colony without necropsy. Toxicity studies were performed by QuBEST BIO Co., Ltd (Yongin, Korea).
The objective of this study was to determine the maximum tolerated dose (MTD) of SLC-D011 following dose escalation by oral gavage to Beagle dogs.
The study group was detailed in Text Table 1.
Text Table 1. Study Group
Dose Level Dose Conc. No. of Animals†
Group Treatment (mg/kg) (mg/mL)
†: Animals were re-used for each dose with at least 4-day wash-out period.
The following parameters were evaluated in this study: mortality, clinical signs, body weights and clinical pathology parameters (hematology and serum biochemistry).
Mortality and Clinical Observations
All animals survived until end of the study. Test article-related clinical observations were limited to oily soft stool in the 100 mg/kg/day group animals and vomitus (frothy) and soft sto ol in the 400 […]
Clinical Pathology Parameters (Hematology and Serum Chemistry) […]
the 100 and 400 mg/kg group animals on approximately 24 hours post each dose, compared to pre […]
Based on the results of this study, the maximum tolerated dose (MTD) of SLC-D011 was considered to […]
Test article formulations were administered once via oral gavage. The day of 1st dosing was designated […]
Each dose was administered via a syringe attached with 12-french feeding tube. A dose volume of 5 mL/kg was used and individual dose volumes were based on the most recent body weight. Each dose was followed by a distilled water of 5 mL. […]
Each animal was observed twice daily (a.m. and p.m.) for mortality and moribundity; findings were recorded as they were observed. Cage side observations were made for each animal once daily; abnormal findings were recorded. Detailed observations were made for each animal once prior to treatment; abnormal findings (ranked/graded, if appropriate) or an indication the animal appears […]
Body weights were measured prior to each dosing. […]
Prior to each dosing and approximately 24 hours post each dose, blood samples for hematology examination were collected from the via cephalic vein into tubes with K2EDTA anticoagulant and […]
Parameters Unit Measurement Method
ⓐ RBC (Red blood cell count) 106/μL Electric Impedance […]
ⓒ HGB (Hemoglobin conc.) g/dL Cyanmethemoglobin […]

We go through one compound from publication PMC7782499, “Progerinin, an optimized progerin-lamin A binding inhibitor, ameliorates premature senescence phenotypes of Hutchinson-Gilford progeria syndrome” (Communications Biology, 2021).

For the compound `CC1(C)Oc2cc3oc(=O)ccc3cc2C[C@@H]1OC/C=C/c1ccccc1` [SLC-D011], the fraction remaining (usually the share of the starting amount still present when the sample was taken) at 0.5 h in series [1] was found to be 59.7%. In series [2], the MTD (in general, the highest dose tested that stayed within the study's limit of toxicity) is over 400 mg/kg.
